This note sets out measurements from patent US4353923A, “Pharmaceutical composition containing a benzofurancarboxamide derivative as the active ingredient” (Kyowa Hakko Kogyo Co., Ltd., priority 1980, dated 1982).

The structures appear in SMILES notation.

The subject of one data set is male Wistar rats. The experiment in a line: Anti-inflammatory activity: carrageenin edema method. The data set is classed as in vivo. The following applies: Rattus norvegicus, po, 3 hours after carrageenin, read-out: Inhibition ratio (paw swelling, vs control); for inhibition in vivo at 150 mg/kg: 150 mg/kg p.o. Here is the method: In this experiment, 5 male Wistar rats weighing 140±10 g were used as one group. Sixty minutes after oral administration of each drug to each animal, 0.1 ml of a 1% carrageenin solution as a phlogistic agent was injected into the plantar surface of the right hind paw of the animal to induce inflammation. The volume of the paw was measured before and 3 hours after the injection of the phlogistic agent. Swelling ratio and inhibition ratio in comparison with control group were calculated.
In general terms: In the carrageenan paw model, swelling and tenderness develop within hours.

In data set [1] the test system is male dd mice. Kind of data set: Anticonvulsant activity: maximal electroshock convulsion test. In kind it is in vivo. The following applies: Mus musculus, po, 1 h, 60 min after administration, read-out: Maximal electroshock convulsion test, inhibition ratio; for responders at 150 mg/kg: 150 mg/kg p.o.; for responders at 300 mg/kg: 300 mg/kg p.o.; for responders at 50 mg/kg: 50 mg/kg p.o.; for responders at 75 mg/kg: 75 mg/kg p.o.; for responders at 100 mg/kg: 100 mg/kg p.o. An excerpt:
Anticonvulsant activity was examined according to maximal electroshock convulsion test.
In this experiment, 10 male dd mice weighing 23±1 g were used as one group. Each drug was orally administered to the animals. Sixty minutes after the administration, an electric current (2000 V, 50 mA) was applied to both eyes of the mouse for 0.2 second. Drug activity was judged according to whether tonic extensor seizures were observed or not.
(In general: The maximal electroshock test induces tonic seizures with an electrical stimulus.)

Data set [2] concerns male dd mice. Kind of data set: Analgesic activity: acetic acid writhing. In kind it is in vivo. As to conditions: Mus musculus, po, 1 h, acetic acid i.p. after 60 min, read-out: Inhibition ratio (writhes, vs control); for inhibition in vivo at 150 mg/kg: 150 mg/kg p.o.; for inhibition in vivo at 50 mg/kg: 50 mg/kg p.o. As for the experimental part:
In this experiment, 10 male dd mice weighing 20±1 g were used as one group for examination of analgesic activity. Sixty minutes after oral administration of each drug to each animal, 0.2 ml of a 0.7% acetic acid solution was intraperitoneally administered to the animal. Starting 10 minutes after the administration of acetic acid, the number of writhes occurred in 10 minutes was counted. Average number of writhes and inhibition ratio in comparison with control group were calculated.
On the technique in general: In writhing tests, fewer writhes than in controls are read as antinociception.

Data set [3] deals with male dd mice. The experiment in a line: Muscle relaxant activity: traction test. The data set is classed as in vivo. The following applies: 5 mice per group. An excerpt: (§1) In this example, 5 male dd mice weighing 20±1 g were used as one group. Prior to the experiments, mice were placed on the rod having a diameter of 3 cm and rotating at 5 r.p.m. in the reverse direction of the rotation. […] The drugs were orally administered and the muscle relaxant activity with the passage of time was examined by the following tests.
Traction test: Forefeet of the same mouse were placed on a wire to observe whether it falls or not.
(§2) In each test, the drug was considered to have a muscle relaxant activity when the mouse fell.

Data set [4] concerns male dd mice. The experiment in a line: Muscle relaxant activity: rotating rod test. The data set is classed as in vivo. As to conditions: 5 mice per group. Here is the method: as §1
Rotating rod test: The same mouse was placed on the rotating rod to observe whether it falls or not within 2 minutes.
as §2

Data set [5] relates to male dd mice. The experiment in a line: Muscle relaxant activity: slant test. In kind it is in vivo. The following applies: 5 mice per group. As for the experimental part:
as §1
Slant test: Each mouse was placed on a wire net inclined at an angle of 45° to observe whether it falls or not.
as §2

The nature of the next data set: in vivo. The following applies: mouse, po, mice, deaths counted for 7 days. As for the experimental part:
In this example, 3-7 male dd mice weighing 20±1 g were used as one group. Each drug was suspended in a 0.3% CMC solution and orally administered. After the administration, number of dead animals was counted for 7 days to determine LD50 value. As the reference drugs, mepirizole and benzydamine hydrochloride were dissolved in water and orally administered. The drugs and the reference drugs were also administered in the same manner as above in Examples 2-5.

A word on the LD50: it is the dose at which mortality reaches 50%. As to `Cc1ccc2oc(C(=O)N(C)C)c(C)c2c1` [Compound (E), N,N,3,5-Tetramethylbenzo-[b]furan-2-carboxamide], the values for the inhibition in vivo at 150 mg/kg in the data set with male Wistar rats and in the data set on male dd mice [2] were 14.7% and 22.6%, respectively. For the same compound, the responders at 150 mg/kg in the data set with male dd mice [1] stood at 10%. Moreover, the responders at 300 mg/kg in the data set on male dd mice [1] worked out at 57.1%. The “Number of dropped mice, traction test” value in the data set on male dd mice [3] (150 mg/kg p.o., 1 hr) is given as 0 mice; in the data set on male dd mice [3] (150 mg/kg p.o., 2 hr), 0 mice; in the data set on male dd mice [3] (150 mg/kg p.o., 3 hr) it was 0 mice; in the data set with male dd mice [3] (300 mg/kg p.o., 1 hr) it was 3 mice; in the data set on male dd mice [3] (300 mg/kg p.o., 2 hr) it was 1 mice; in the data set with male dd mice [3] (300 mg/kg p.o., 3 hr) it was 1 mice. Further, the “Number of dropped mice, rotating rod test” value (“Number … rotating rod test” below) in the data set with male dd mice [4] (150 mg/kg p.o., 1 hr) was determined as 1 mice; in the data set with male dd mice [4] (150 mg/kg p.o., 2 hr), 0 mice; with male dd mice [4] (150 mg/kg p.o., 3 hr), 0 mice; with male dd mice [4] (300 mg/kg p.o., 1 hr), 4 mice; in the data set with male dd mice [4] (300 mg/kg p.o., 2 hr), 2 mice; with male dd mice [4] (300 mg/kg p.o., 3 hr), 2 mice. Also, the “Number of dropped mice, slant test” value with male dd mice [5] (150 mg/kg p.o., 1 hr) was found to be 1 mice; in the data set on male dd mice [5] (150 mg/kg p.o., 2 hr), 0 mice; in the data set on male dd mice [5] (150 mg/kg p.o., 3 hr), 0 mice; with male dd mice [5] (300 mg/kg p.o., 1 hr) it was 3 mice; in the data set on male dd mice [5] (300 mg/kg p.o., 2 hr) it was 2 mice; in the data set on male dd mice [5] (300 mg/kg p.o., 3 hr) it was 1 mice. The compound further had a median lethal dose (LD50) at 168 h in “in vivo” greater than 1000 mg/kg.
On to `Cc1c(C(=O)N(C)C)oc2ccc(F)cc12` [Compound (D), 5-Fluoro-N,N,3-trimethyl-benzo[b]furan-2-carboxamide], for which the inhibition in vivo at 150 mg/kg in the data set with male Wistar rats was determined as 34%; in the data set with male dd mice [2] it was 95.4%. The responders at 50 mg/kg in the data set on male dd mice [1] was determined as 10%. Moreover, the responders at 75 mg/kg in the data set on male dd mice [1] was determined as 40%. In addition, the responders at 100 mg/kg with male dd mice [1] was 90%. The inhibition in vivo at 50 mg/kg with male dd mice [2] turned out to be 44.2%. In addition, the “Number of dropped mice, traction test” value in the data set on male dd mice [3] (50 mg/kg p.o., 1 hr) was found to be 0 mice; in the data set with male dd mice [3] (50 mg/kg p.o., 2 hr), 0 mice; in the data set on male dd mice [3] (50 mg/kg p.o., 3 hr), 0 mice; in the data set on male dd mice [3] (75 mg/kg p.o., 1 hr) it was 2 mice; with male dd mice [3] (75 mg/kg p.o., 2 hr), 1 mice; in the data set with male dd mice [3] (75 mg/kg p.o., 3 hr), 0 mice. Besides, the “Number of dropped mice, traction test” value with male dd mice [3] (100 mg/kg p.o., 1 hr) worked out at 2 mice; with male dd mice [3] (100 mg/kg p.o., 2 hr), 1 mice; in the data set on male dd mice [3] (100 mg/kg p.o., 3 hr), 0 mice; with male dd mice [3] (150 mg/kg p.o., 1 hr), 4 mice; in the data set with male dd mice [3] (150 mg/kg p.o., 2 hr), 3 mice; in the data set with male dd mice [3] (150 mg/kg p.o., 3 hr), 2 mice. Also, the “Number … rotating rod test” value in the data set on male dd mice [4] (50 mg/kg p.o., 1 hr) came out at 0 mice; in the data set on male dd mice [4] (50 mg/kg p.o., 2 hr), 0 mice; with male dd mice [4] (50 mg/kg p.o., 3 hr), 0 mice; in the data set on male dd mice [4] (75 mg/kg p.o., 1 hr), 3 mice; in the data set on male dd mice [4] (75 mg/kg p.o., 2 hr), 1 mice; with male dd mice [4] (75 mg/kg p.o., 3 hr), 0 mice. Besides, the “Number … rotating rod test” value is 5 mice in the data set with male dd mice [4] (100 mg/kg p.o., 1 hr); 3 mice in the data set with male dd mice [4] (100 mg/kg p.o., 2 hr); 1 mice with male dd mice [4] (100 mg/kg p.o., 3 hr); 5 mice with male dd mice [4] (150 mg/kg p.o., 1 hr); 5 mice in the data set on male dd mice [4] (150 mg/kg p.o., 2 hr); 3 mice with male dd mice [4] (150 mg/kg p.o., 3 hr). The “Number of dropped mice, slant test” value with male dd mice [5] (150 mg/kg p.o., 1 hr) was 4 mice; in the data set on male dd mice [5] (150 mg/kg p.o., 2 hr), 4 mice; with male dd mice [5] (150 mg/kg p.o., 3 hr) it was 1 mice. Besides, the LD50 at 168 h in the data set “in vivo” lay within 700 to 1000 mg/kg.
As for `Cc1c(C(=O)N(C)C)oc2cc(Cl)ccc12` [Compound (B), 6-Chloro-N,N,3-trimethyl-benzo[b]furan-2-carboxamide], the inhibition in vivo at 150 mg/kg came out at 39.8% in the data set with male Wistar rats and 95.4% in the data set on male dd mice [2]. Besides, the responders at 25 mg/kg in the data set with male dd mice [1] (25 mg/kg p.o.) was found to be 0%. Further, the responders at 50 mg/kg with male dd mice [1] worked out at 40%. Moreover, the responders at 75 mg/kg in the data set with male dd mice [1] is 60%. In addition, the inhibition in vivo at 50 mg/kg with male dd mice [2] came out at 34.9%. Besides, the “Number of dropped mice, traction test” value is listed as 3 mice in the data set on male dd mice [3] (75 mg/kg p.o., 1 hr); 4 mice with male dd mice [3] (75 mg/kg p.o., 2 hr); 2 mice in the data set on male dd mice [3] (75 mg/kg p.o., 3 hr); 5 mice in the data set on male dd mice [3] (150 mg/kg p.o., 1 hr); 5 mice with male dd mice [3] (150 mg/kg p.o., 2 hr); 5 mice in the data set with male dd mice [3] (150 mg/kg p.o., 3 hr). In addition, the “Number … rotating rod test” value in the data set with male dd mice [4] (75 mg/kg p.o., 1 hr) is given as 5 mice; in the data set with male dd mice [4] (75 mg/kg p.o., 2 hr), 4 mice; with male dd mice [4] (75 mg/kg p.o., 3 hr), 4 mice; in the data set on male dd mice [4] (150 mg/kg p.o., 1 hr) it was 5 mice; with male dd mice [4] (150 mg/kg p.o., 2 hr), 5 mice; in the data set on male dd mice [4] (150 mg/kg p.o., 3 hr) it was 5 mice. The “Number of dropped mice, slant test” value in the data set on male dd mice [5] (300 mg/kg p.o., 1 hr) came out at 5 mice; in the data set with male dd mice [5] (300 mg/kg p.o., 2 hr), 5 mice; in the data set with male dd mice [5] (300 mg/kg p.o., 3 hr), 5 mice. Further, the LD50 at 168 h in “in vivo” fell in the range of 500 to 1000 mg/kg.
As to `COc1cc(C)nc(-n2nc(C)cc2OC)n1` [Mepirizole, mepirizole, reference compound], in the data set with male Wistar rats (100 mg/kg p.o.), the inhibition in vivo at 100 mg/kg was found to be 29.2%. Further, the inhibition in vivo at 200 mg/kg with male Wistar rats (200 mg/kg p.o.) stood at 47%; in the data set with male dd mice [2] (200 mg/kg p.o.), 84.7%. The responders at 100 mg/kg with male dd mice [1] stood at 20%. The responders at 150 mg/kg with male dd mice [1] was determined as 85.7%. For the same compound, the responders at 300 mg/kg in the data set on male dd mice [1] turned out to be 100%. In the data set on male dd mice [2], the inhibition in vivo at 50 mg/kg is 30.4%. The “Number of dropped mice, traction test” value in the data set on male dd mice [3] (150 mg/kg p.o., 1 hr) was 2 mice; with male dd mice [3] (150 mg/kg p.o., 2 hr), 0 mice; with male dd mice [3] (150 mg/kg p.o., 3 hr), 0 mice. Also, the “Number … rotating rod test” value is reported as 5 mice with male dd mice [4] (150 mg/kg p.o., 1 hr); 1 mice with male dd mice [4] (150 mg/kg p.o., 2 hr); 0 mice in the data set on male dd mice [4] (150 mg/kg p.o., 3 hr). Moreover, the “Number of dropped mice, slant test” value in the data set on male dd mice [5] (150 mg/kg p.o., 1 hr) was 3 mice; in the data set with male dd mice [5] (150 mg/kg p.o., 2 hr) it was 1 mice; in the data set on male dd mice [5] (150 mg/kg p.o., 3 hr), 0 mice. Further, the LD50 at 168 h in the data set “in vivo” was 500 to 1000 mg/kg.
